# Tested on: ATXN3 pre-mRNA
# Assay: ATXN3 Quantitative Splicing Assay (qPCR, E4E5 primers/probe, transcripts containing exon 4)
# Type: cell-based
# Conditions: Human neuroblastoma SK-N-MC cells, 24 h treatment, 30 μM to 0.6 nM; read-out: ATXN3 Potency - Splicing E4E5 IC50
# Description: Human neuroblastoma SK-N-MC cells were plated in 384-well plates at 20,000 cells/well. Twenty-four hours after plating, cells were treated with compounds for 24 h at appropriate concentrations ranging from 30 μM to 0.6 nM (0.3% DMSO). Treated cells were lysed in 15 μL of lysis buffer, and cDNA was synthesized using the Fast Advanced Cells-to-Ct kit. Two μL of each cDNA was used in qPCR reactions to confirm the exon 4 skipped transcripts of ATXN3. A second set of primers/probe E4E5 was used to detect the transcripts containing exon 4. The third set of primers/probe E8E9 was used to detect total gene level of ATXN3. The qPCR reactions were prepared in 384-well plates in 10 μL volume, using TaqMan™ Fast Advanced Master Mix with primers and probes shown in the table below. Reactions were run in a Quant Studio 6 qPCR instrument with default settings.
# The primers and probes are listed below in Table 3.
row,SMILES,IC50
1,"C[C@H](F)[C@H](N)Cc1cc2c(NCc3ccccc3)nc(Cl)nn2c1Cl [Compound 6, 6-((2R,3S)-2-amino-3-fluorobutyl)-N-benzyl-2,7-dichloropyrrolo[2,1-f][1,2,4]triazin-4-amine]",101 to 500 nM
2,"Cc1c(C[C@@H](N)CC2CC2)cc2c(NCc3ccccc3F)nc(Cl)nn12 [Compound 14, (S)-6-(2-amino-3-cyclopropylpropyl)-2-chloro-N-(2-fluorobenzyl)-7-methylpyrrolo[2,1-f][1,2,4]triazin-4-amine]",5000 to 10000 nM
3,"C[C@H](F)[C@H](N)Cc1cc2c(NCc3ccccc3F)nc(Cl)nn2c1Cl [Compound 5, 6-((2R,3S)-2-amino-3-fluorobutyl)-2,7-dichloro-N-(2-fluorobenzyl)pyrrolo[2,1-f][1,2,4]triazin-4-amine]",101 to 500 nM
4,"N[C@H](Cc1cc2c(NCc3ccccc3F)nc(Cl)nn2c1Cl)CC1CC1 [Compound 12, (S)-6-(2-amino-3-cyclopropylpropyl)-2,7-dichloro-N-(2-fluorobenzyl)pyrrolo[2,1-f][1,2,4]triazin-4-amine]",501 to 5000 nM
5,"C[C@H](F)[C@H](N)Cc1cc2c(NCc3ccccc3F)nc(Cl)nn2c1Br [Compound 4, 6-((2R,3S)-2-amino-3-fluorobutyl)-7-bromo-2-chloro-N-(2-fluorobenzyl)pyrrolo[2,1-f][1,2,4]triazin-4-amine]",101 to 500 nM
6,"Cc1c(C[C@@H](N)[C@H](C)F)cc2c(NCc3ccccc3)nc(Cl)nn12 [Compound 7, 6-((2R,3S)-2-amino-3-fluorobutyl)-N-benzyl-2-chloro-7-methylpyrrolo[2,1-f][1,2,4]triazin-4-amine]",501 to 5000 nM
7,"N[C@H](Cc1cc2c(NCc3ccccc3)nc(Cl)nn2c1Cl)CC1CC1 [Compound 11, (S)-6-(2-amino-3-cyclopropylpropyl)-N-benzyl-2,7-dichloropyrrolo[2,1-f][1,2,4]triazin-4-amine]",501 to 5000 nM
8,"Cc1c(C[C@@H](N)CC2CC2)cc2c(NCc3ccccc3)nc(Cl)nn12 [Compound 13, (S)-6-(2-amino-3-cyclopropylpropyl)-N-benzyl-2-chloro-7-methylpyrrolo[2,1-f][1,2,4]triazin-4-amine]",5000 to 10000 nM
9,"C[C@H](F)[C@H](N)Cc1cc2c(NCc3ccc(F)cc3)nc(Cl)nn2c1Cl [Compound 2, 6-((2R,3S)-2-amino-3-fluorobutyl)-2,7-dichloro-N-(4-fluorobenzyl)pyrrolo[2,1-f][1,2,4]triazin-4-amine]",501 to 5000 nM
10,"N[C@H](Cc1cc2c(NCc3ccccc3)nc(Cl)nn2c1Br)CC1CC1 [Compound 9, (S)-6-(2-amino-3-cyclopropylpropyl)-N-benzyl-7-bromo-2-chloropyrrolo[2,1-f][1,2,4]triazin-4-amine]",501 to 5000 nM
11,"C[C@H](F)[C@H](N)Cc1cc2c(NCc3ccc(F)cc3)nc(Cl)nn2c1Br [Compound 1, 6-((2R,3S)-2-amino-3-fluorobutyl)-7-bromo-2-chloro-N-(4-fluorobenzyl)pyrrolo[2,1-f][1,2,4]triazin-4-amine]",501 to 5000 nM
12,"C[C@H](F)[C@H](N)Cc1cc2c(NCc3ccccc3)nc(Cl)nn2c1Br [Compound 3, 6-((2R,3S)-2-amino-3-fluorobutyl)-N-benzyl-7-bromo-2-chloropyrrolo[2,1-f][1,2,4]triazin-4-amine]",101 to 500 nM
13,"N[C@H](Cc1cc2c(NCc3ccccc3F)nc(Cl)nn2c1Br)CC1CC1 [Compound 10, (S)-6-(2-amino-3-cyclopropylpropyl)-7-bromo-2-chloro-N-(2-fluorobenzyl)pyrrolo[2,1-f][1,2,4]triazin-4-amine]",501 to 5000 nM
14,"Cc1c(C[C@@H](N)[C@H](C)F)cc2c(NCc3ccccc3F)nc(Cl)nn12 [Compound 8, 6-((2R,3S)-2-amino-3-fluorobutyl)-2-chloro-N-(2-fluorobenzyl)-7-methylpyrrolo[2,1-f][1,2,4]triazin-4-amine]",101 to 500 nM
